Data reported in patent US20190282496A1 (Bryn Pharma, LLC, priority 2018, published 2019).

Tests used:
[1] = tested on: histamine induced nasal congestion
[2] = dogs; concomitant intranasal administration of phentolamine; Bleske et al.; cited from earlier work

SMILES	nasal congestion and flow restriction pressure ([1]; Group 1, 5 and 10 minutes post-histamine exposure)	histamine-induced nasal congestion ([1]; aerosolized 5% histamine, all animals)	histamine induced congestion without epinephrine administration ([1]; pilot study, 60, 80 and 100 minute time points)	epinephrine plasma levels following intranasal administration [2]
NCCc1c[nH]cn1 [Histamine]	progressive increase	induced congestion in all animals to varying degrees	remains elevated at significant levels	–
Cc1ccc(N(CC2=NCCN2)c2cccc(O)c2)cc1 [phentolamine]	–	–	–	enhanced
